Results from PubChem BioAssay AID330 (DTP/NCI, 2004).
“And” between values parts separate entries of the source, which are not always exact repeats. Identical values can stand only once. Toxic doses and inconclusive results are not listed. The calls were made as follows: active = survival T/C of 150% or more; inactive = T/C below 125% in these data.

Tested on: P388 leukemia ip, CD2F1 mice, survival T/C
Test: NCI In Vivo Anticancer Drug Screen. Data for tumor model P388 Leukemia (intraperitoneal) in CD2F1 (CDF1) mice
Details: endpoint: median survival time, higher = longer survival
In short: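 Mice carrying the transplanted tumor received test compound or vehicle. Survival was recorded in each group, and the value is the treated-group measurement divided by that of the vehicle-treated control group.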

[1] = dose: 50.0 mg/kg/injection, schedule: Q01DX009 (ip), vehicle: Klucel (hydroxypropylcellulose) (HPC)
[2] = dose: 100.0 mg/kg/injection, schedule: Q01DX009 (ip), vehicle: Klucel (hydroxypropylcellulose) (HPC)
[3] = dose: 50.0 mg/kg/injection, schedule: Q01DX009 (ip), vehicle: saline with Tween-80
[4] = dose: 100.0 mg/kg/injection, schedule: Q01DX009 (ip), vehicle: saline with Tween-80
[5] = dose: 200.0 mg/kg/injection, schedule: Q01DX009 (ip), vehicle: saline with Tween-80
[6] = dose: 50.0 mg/kg/injection, schedule: Q01DX005 (ip), vehicle: saline with Tween-80
[7] = dose: 100.0 mg/kg/injection, schedule: Q01DX005 (ip), vehicle: saline with Tween-80
[8] = dose: 200.0 mg/kg/injection, schedule: Q01DX005 (ip), vehicle: saline with Tween-80
[9] = dose: 50.0 mg/kg/injection, schedule: Q01DX005 (ip), vehicle: Klucel (hydroxypropylcellulose) (HPC)
[10] = dose: 100.0 mg/kg/injection, schedule: Q01DX005 (ip), vehicle: Klucel (hydroxypropylcellulose) (HPC)
[11] = dose: 200.0 mg/kg/injection, schedule: Q01DX005 (ip), vehicle: Klucel (hydroxypropylcellulose) (HPC)
[12] = dose: 60.0 mg/kg/injection, schedule: Q01DX005 (ip), vehicle: Klucel (hydroxypropylcellulose) (HPC)
[13] = dose: 120.0 mg/kg/injection, schedule: Q01DX005 (ip), vehicle: Klucel (hydroxypropylcellulose) (HPC)
[14] = dose: 240.0 mg/kg/injection, schedule: Q01DX005 (ip), vehicle: Klucel (hydroxypropylcellulose) (HPC)
[15] = dose: 60.0 mg/kg/injection, schedule: Q01DX005 (ip), vehicle: saline with Tween-80
[16] = dose: 120.0 mg/kg/injection, schedule: Q01DX005 (ip), vehicle: saline with Tween-80
[17] = dose: 240.0 mg/kg/injection, schedule: Q01DX005 (ip), vehicle: saline with Tween-80

Measured: T/C

c1cc2nncn2cn1
inactive: [1] 93 % of control | [2] 104 % of control | dose: 200.0 mg/kg/injection, schedule: Q01DX009 (ip), vehicle: Klucel (hydroxypropylcellulose) (HPC) 99 % of control

NCCc1ccc(OCc2ccccc2)c(OCc2ccccc2)c1
inactive: dose: 6.25 mg/kg/injection, schedule: Q01DX009 (ip), vehicle: saline 101 % of control and 107 % of control | dose: 12.5 mg/kg/injection, schedule: Q01DX009 (ip), vehicle: saline 108 % of control and 118 % of control | dose: 25.0 mg/kg/injection, schedule: Q01DX009 (ip), vehicle: saline 101 % of control and 109 % of control

Cc1ccc(S(=O)c2cc(C(C)(C)C)cc(C(C)(C)C)c2O)cc1 (stereo not drawn)
inactive: [3] 103 % of control | [4] 110 % of control | [5] 88 % of control

COC(=O)/C(C#N)=C(C)/C=C/c1ccc(OC)cc1
inactive: dose: 100.0 mg/kg/injection, schedule: Q04DX003 (ip), vehicle: saline 97 % of control | dose: 200.0 mg/kg/injection, schedule: Q04DX003 (ip), vehicle: saline 92 % of control | dose: 400.0 mg/kg/injection, schedule: Q04DX003 (ip), vehicle: saline 98 % of control

O=C(Nc1cccc(Cl)c1)c1cc(N=Nc2ccc([N+](=O)[O-])cc2Cl)ccc1O
inactive: dose: 12.5 mg/kg/injection, schedule: Q01DX009 (ip), vehicle: Klucel (hydroxypropylcellulose) (HPC) 104 % of control | dose: 12.5 mg/kg/injection, schedule: Q01DX009 (ip), vehicle: saline with Tween-80 105 % of control | dose: 25.0 mg/kg/injection, schedule: Q01DX009 (ip), vehicle: Klucel (hydroxypropylcellulose) (HPC) 113 % of control | dose: 25.0 mg/kg/injection, schedule: Q04DX003 (ip), vehicle: Klucel (hydroxypropylcellulose) (HPC) 107 % of control | [1] 113 % of control | dose: 50.0 mg/kg/injection, schedule: Q04DX003 (ip), vehicle: Klucel (hydroxypropylcellulose) (HPC) 107 % of control | [2] 118 % of control | dose: 100.0 mg/kg/injection, schedule: Q04DX003 (ip), vehicle: Klucel (hydroxypropylcellulose) (HPC) 115 % of control | dose: 200.0 mg/kg/injection, schedule: Q04DX003 (ip), vehicle: Klucel (hydroxypropylcellulose) (HPC) 115 % of control

CCn1ncc2c(=O)c(C(=O)c3ccccc3)c[nH]c21
inactive: [6] 99 % of control | [7] 97 % of control | [8] 104 % of control

CNC(=S)N/N=C(\c1ccccc1)c1ccccn1
inactive: dose: 50.0 mg/kg/injection, schedule: Q01DX009 (ip), vehicle: saline 100 % of control | dose: 50.0 mg/kg/injection, schedule: Q01DX009 (ip), vehicle: suspension in saline 100 % of control and 105 % of control | dose: 100.0 mg/kg/injection, schedule: Q01DX009 (ip), vehicle: saline 102 % of control | dose: 100.0 mg/kg/injection, schedule: Q01DX009 (ip), vehicle: suspension in saline 103 % of control and 90 % of control | dose: 200.0 mg/kg/injection, schedule: Q01DX009 (ip), vehicle: saline 100 % of control | dose: 200.0 mg/kg/injection, schedule: Q01DX009 (ip), vehicle: suspension in saline 96 % of control and 98 % of control | dose: 400.0 mg/kg/injection, schedule: Q01DX009 (ip), vehicle: saline 122 % of control | dose: 400.0 mg/kg/injection, schedule: Q01DX009 (ip), vehicle: suspension in saline 102 % of control and 97 % of control

CCOc1ccc(C(C)c2cc3c(cc2OCCO)OCO3)cc1 (stereo not drawn)
inactive: dose: 12.5 mg/kg/injection, schedule: Q01DX005 (ip), vehicle: Klucel (hydroxypropylcellulose) (HPC) 109 % of control | dose: 25.0 mg/kg/injection, schedule: Q01DX005 (ip), vehicle: Klucel (hydroxypropylcellulose) (HPC) 97 % of control | [9] 104 % of control | [10] 103 % of control | [11] 102 % of control

Cn1c(C(=O)N/N=C\C2OC3OC(C)(C)OC3C3OC(C)(C)OC23)cc2cc(OCc3ccccc3)ccc21 (stereo not drawn)
inactive: [9] 103 % of control | [10] 101 % of control | [11] 97 % of control

Cc1cc(=O)c2ccccc2s1
inactive: [3] 104 % of control | [4] 113 % of control

COc1ccc(C2c3cc4c(cc3OC3(N5CCCC5)CCCC23)OCO4)c(OC)c1 (stereo not drawn)
inactive: [12] 99 % of control | [13] 95 % of control | [14] 96 % of control

COC(=O)c1c(C(N)=O)c(C)n(NC(=O)c2ccccc2)c1C
inactive: [15] 95 % of control | [16] 93 % of control | [17] 94 % of control

S=C1N(c2ccc(Br)cc2)C2=Nc3ccccc3SC(=C2N=Nc2ccccc2Cl)N1c1ccc(Cl)cc1
inactive: [6] 97 % of control | [7] 93 % of control | [8] 93 % of control

O=C1NC(=O)/C(=C/C=C/c2ccccc2)S1
inactive: dose: 25.0 mg/kg/injection, schedule: Q01DX009 (ip), vehicle: saline with Tween-80 102 % of control and 111 % of control | [3] 102 % of control and 116 % of control and 118 % of control | [4] 93 % of control | [5] 123 % of control

COC1(OC)C(c2ccccc2)C(C#N)(S(=O)(=O)c2ccccc2)C1(OC)OC (stereo not drawn)
inactive: [12] 100 % of control | [13] 98 % of control | [14] 100 % of control

Nc1ccc(O)c2c1C(=O)c1ccccc1C2=O
inactive: [6] 93 % of control | [7] 111 % of control | [8] 101 % of control

O=C1C=C(Nc2ccc(Br)cc2)C(Nc2ccc(Br)cc2)=CC1=O
inactive: dose: 4.68 mg/kg/injection, schedule: Q01DX009 (ip), vehicle: saline with Tween-80 97 % of control | dose: 9.37 mg/kg/injection, schedule: Q01DX009 (ip), vehicle: saline with Tween-80 105 % of control | dose: 18.75 mg/kg/injection, schedule: Q01DX005 (ip), vehicle: saline with Tween-80 100 % of control | dose: 18.75 mg/kg/injection, schedule: Q01DX009 (ip), vehicle: saline with Tween-80 106 % of control | dose: 37.5 mg/kg/injection, schedule: Q01DX005 (ip), vehicle: saline with Tween-80 92 % of control

O=[N+]([O-])c1ccc(N=Nc2ccc(N(CCCl)CCCl)cc2)c([N+](=O)[O-])c1
inactive: dose: 100.0 mg/kg/injection, schedule: Q01DX001 (ip), vehicle: Klucel (hydroxypropylcellulose) (HPC) 106 % of control | dose: 200.0 mg/kg/injection, schedule: Q01DX001 (ip), vehicle: Klucel (hydroxypropylcellulose) (HPC) 108 % of control | dose: 400.0 mg/kg/injection, schedule: Q01DX001 (ip), vehicle: Klucel (hydroxypropylcellulose) (HPC) 103 % of control

COC(=O)C(=O)c1c(C(=O)OC)nc2[nH]n(-c3ccccc3)c(=O)c2c1Cc1ccccc1
inactive: [15] 98 % of control | [16] 100 % of control | [17] 91 % of control

COSOC
inactive: dose: 7.5 mg/kg/injection, schedule: Q04DX003 (ip), vehicle: Klucel (hydroxypropylcellulose) (HPC) 105 % of control | dose: 15.0 mg/kg/injection, schedule: Q04DX003 (ip), vehicle: Klucel (hydroxypropylcellulose) (HPC) 104 % of control | dose: 30.0 mg/kg/injection, schedule: Q04DX003 (ip), vehicle: Klucel (hydroxypropylcellulose) (HPC) 98 % of control

COC(=O)/C=C1\SC(OC)(N(C)c2ccccc2)N(C)C1=O (stereo not drawn)
inactive: [15] 90 % of control | [16] 98 % of control | [17] 91 % of control

N#CC(=O)Nc1cccc(Cl)c1
inactive: dose: 15.0 mg/kg/injection, schedule: Q01DX005 (ip), vehicle: saline with Tween-80 107 % of control | dose: 30.0 mg/kg/injection, schedule: Q01DX005 (ip), vehicle: saline with Tween-80 103 % of control

CCCC(=O)NC1C(Nc2ccc(S(=O)(=O)Nc3nc(C)cc(C)n3)cc2)OC(CO)C(O)C1O (stereo not drawn)
inactive: dose: 50.0 mg/kg/injection, schedule: Q01DX005 (ip), vehicle: saline 97 % of control | dose: 100.0 mg/kg/injection, schedule: Q01DX005 (ip), vehicle: saline 92 % of control | dose: 200.0 mg/kg/injection, schedule: Q01DX005 (ip), vehicle: saline 99 % of control
